Source: PubChem BioAssay AID602260 (Sanford-Burnham Center for Chemical Genomics, 2012)
Active and inactive are the calls of the source.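 Rule for the calls: active = mean IC50 at or below 20 µM; inactive = the rest.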

Molecular target: Polyadenylate-binding protein 1 (Homo sapiens) (UniProt P11940)
Assay: PABP1 MLLE–PAM2 interaction inhibitors, dose response, miRNA deadenylation inhibitor project, biochemical, fluorescence polarization, Cy5-PAM2 peptide, secondary (AID 602260)
Settings: GST-Mlle / Cy5-PAM2 peptide fluorescence polarization

Chain of Polyadenylate-binding protein 1 (Homo sapiens) (P11940 whole entry, looked up): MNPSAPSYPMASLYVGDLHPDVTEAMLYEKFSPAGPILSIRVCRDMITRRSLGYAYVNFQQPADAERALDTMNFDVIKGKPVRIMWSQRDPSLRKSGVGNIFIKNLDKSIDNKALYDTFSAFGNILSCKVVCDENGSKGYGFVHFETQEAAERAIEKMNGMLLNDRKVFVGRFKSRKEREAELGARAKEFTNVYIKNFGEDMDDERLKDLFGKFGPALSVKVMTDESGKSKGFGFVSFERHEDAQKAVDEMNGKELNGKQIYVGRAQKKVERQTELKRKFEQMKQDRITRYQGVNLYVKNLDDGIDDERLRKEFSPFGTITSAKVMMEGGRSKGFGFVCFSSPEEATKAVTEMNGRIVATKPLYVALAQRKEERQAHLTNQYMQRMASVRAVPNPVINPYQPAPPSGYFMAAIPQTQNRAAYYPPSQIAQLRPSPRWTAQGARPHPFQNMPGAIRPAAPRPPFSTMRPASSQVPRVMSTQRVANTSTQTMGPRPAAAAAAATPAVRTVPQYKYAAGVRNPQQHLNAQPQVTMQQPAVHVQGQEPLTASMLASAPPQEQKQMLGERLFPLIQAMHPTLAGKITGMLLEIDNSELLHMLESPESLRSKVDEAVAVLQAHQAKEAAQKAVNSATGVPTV

IC50, inactive:
CCOC(=O)c1c(/N=C/c2cccc([N+](=O)[O-])c2O)sc(C)c1C
COc1ccc(NC(=O)Nc2ccc([N+](=O)[O-])cc2)cn1
C[c-]1[c-](C)[c-](C)[c-](C)[c-]1C.[Fe].c1cc2nccc(N3CCCC3)[c-]2c1 (stereo not drawn) > 66 µM
